Data from ChEMBL document CHEMBL1201862, “PubChem BioAssay data set” (2004).
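96-well plates; 48 h exposure; 5 concentrations. Endpoints by linear interpolation between flanking doses. Not reached: highest tested concentration assigned. GI50: concentration for 50% inhibition of growth.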 Activity calls are given as the source filed them. Cut-off read from the data, not from the text of the source: active = GI50 up to about 1.1 µM and inactive = higher.

Tests used:
Assay in all cases: NCI anticancer screen, dose series, 48 h
A549 = test system: A549
CAKI-1 = test system: CAKI-1
CCRF-CEM = test system: CCRF-CEM
HCT-116 = test system: HCT-116
HL-60 = test system: HL-60
HOP-62 = test system: HOP-62
HOP-92 = test system: HOP-92
K562 = test system: K562
NCI-H226 = test system: NCI-H226
OVCAR-5 = test system: OVCAR-5
OVCAR-8 = test system: OVCAR-8
SF-268 = test system: SF-268
SF-295 = test system: SF-295
SK-MEL-2 = test system: SK-MEL-2
SK-OV-3 = test system: SK-OV-3
SN12C = test system: SN12C
SNB-75 = test system: SNB-75
U-251 = test system: U-251
UACC-62 = test system: UACC-62
UO-31 = test system: UO-31

Compound | GI50 (A549) | GI50 (CAKI-1) | GI50 (CCRF-CEM) | GI50 (HCT-116) | GI50 (HL-60) | GI50 (HOP-62) | GI50 (HOP-92) | GI50 (K562) | GI50 (NCI-H226) | GI50 (OVCAR-5) | GI50 (OVCAR-8) | GI50 (SF-268) | GI50 (SF-295) | GI50 (SK-MEL-2) | GI50 (SK-OV-3) | GI50 (SN12C) | GI50 (SNB-75) | GI50 (U-251) | GI50 (UACC-62) | GI50 (UO-31)
CCOC(=O)NC(=O)c1cn(CCNCCO)c(=O)[nH]c1=O | > 100 µM (inactive) | > 100 µM (inactive) | > 100 µM (inactive) | > 100 µM (inactive) | > 100 µM (inactive) | > 100 µM (inactive) | > 100 µM (inactive) | > 100 µM (inactive) | > 100 µM (inactive) | > 100 µM (inactive) | > 100 µM (inactive) | > 100 µM (inactive) | > 100 µM (inactive) | > 100 µM (inactive) | > 100 µM (inactive) | > 100 µM (inactive) | 3.36 µM (inactive) | > 100 µM (inactive) | > 100 µM (inactive) | –
NC(S)=Nc1cc(Cl)ccc1Cl | > 100 µM (inactive) | > 100 µM (inactive) | > 100 µM (inactive) | > 100 µM (inactive) | > 100 µM (inactive) | > 100 µM (inactive) | 85.1 µM (inactive) | > 100 µM (inactive) | > 100 µM (inactive) | > 100 µM (inactive) | 62.1 µM (inactive) | > 100 µM (inactive) | > 100 µM (inactive) | > 100 µM (inactive) | > 100 µM (inactive) | > 100 µM (inactive) | 55.7 µM (inactive) | > 100 µM (inactive) | > 100 µM (inactive) | > 100 µM (inactive)
c1nc2nc[nH]c(SSc3[nH]cnc4ncnc3-4)c-2n1 | 13.9 µM (inactive) | – | 0.202 µM (active) | 0.41 µM (active) | 2.14 µM (inactive) | 0.116 µM (active) | < 0.01 µM (active) | < 0.0472 µM (active) | 0.476 µM (active) | 4.4 µM (inactive) | 0.455 µM (active) | 0.897 µM (active) | 0.127 µM (active) | 8.22 µM (inactive) | – | 12.8 µM (inactive) | 0.463 µM (active) | 5.68 µM (inactive) | < 0.01 µM (active) | –
Cc1ccc(C(=O)C2CC3(CCC2(O)c2ccc(C)cc2)CC(=O)Nc2ccccc2C3=O)cc1 (stereo not drawn) | > 100 µM (inactive) | > 100 µM (inactive) | 5.66 µM (inactive) | 62.7 µM (inactive) | 10.5 µM (inactive) | 99.3 µM (inactive) | 19.4 µM (inactive) | – | > 100 µM (inactive) | > 100 µM (inactive) | > 100 µM (inactive) | > 100 µM (inactive) | 28.4 µM (inactive) | > 100 µM (inactive) | > 100 µM (inactive) | > 100 µM (inactive) | 13.5 µM (inactive) | 8.39 µM (inactive) | > 100 µM (inactive) | > 100 µM (inactive)
CC(=O)Nc1ccc(C(=O)NN2C(=O)C(Cl)C2/C=C/c2ccccc2)cc1 (stereo not drawn) | > 100 µM (inactive) | – | > 100 µM (inactive) | > 100 µM (inactive) | > 100 µM (inactive) | > 100 µM (inactive) | > 100 µM (inactive) | > 100 µM (inactive) | > 100 µM (inactive) | > 100 µM (inactive) | > 100 µM (inactive) | > 100 µM (inactive) | > 100 µM (inactive) | > 100 µM (inactive) | > 100 µM (inactive) | – | > 100 µM (inactive) | > 100 µM (inactive) | > 100 µM (inactive) | > 100 µM (inactive)
COc1ccc(OC)c(C(=O)/C=C/c2cc(O)c(O)cc2F)c1 | 9.57 µM (inactive) | 4.71 µM (inactive) | 0.41 µM (active) | 0.47 µM (active) | 0.0361 µM (active) | 1.05 µM (active) | 10.1 µM (inactive) | 0.356 µM (active) | 5.24 µM (inactive) | 13 µM (inactive) | 2.14 µM (inactive) | 0.643 µM (active) | 1.33 µM (inactive) | 1.02 µM (active) | 3.35 µM (inactive) | 0.417 µM (active) | 0.442 µM (active) | 0.486 µM (active) | 0.701 µM (active) | 2.66 µM (inactive)
CC(=O)/C=C/c1c[nH]c(=O)[nH]c1=O | 305 µM (inactive) | 74.3 µM (inactive) | 92 µM (inactive) | 128 µM (inactive) | 97.9 µM (inactive) | 303 µM (inactive) | 8.13 µM (inactive) | 229 µM (inactive) | 204 µM (inactive) | 303 µM (inactive) | 241 µM (inactive) | 168 µM (inactive) | 304 µM (inactive) | 197 µM (inactive) | 166 µM (inactive) | 142 µM (inactive) | 217 µM (inactive) | 151 µM (inactive) | 236 µM (inactive) | 130 µM (inactive)
S=C(N/N=C(/c1ccccc1)c1ccccn1)Nc1cccc(Cl)c1 | 1.55 µM (inactive) | 0.701 µM (active) | < 0.0258 µM (active) | < 0.0189 µM (active) | < 0.0277 µM (active) | 1.27 µM (inactive) | 1.93 µM (inactive) | – | 0.508 µM (active) | 0.984 µM (active) | 0.0454 µM (active) | 0.462 µM (active) | 0.422 µM (active) | 0.839 µM (active) | 0.215 µM (active) | 0.394 µM (active) | 0.0569 µM (active) | 0.169 µM (active) | 0.201 µM (active) | 0.566 µM (active)
Cc1[nH]c(=O)nc(S)c1C(=O)NC1C2CCCCC2NC2CCCCC21 (stereo not drawn) | – | 17.2 µM (inactive) | 14.8 µM (inactive) | 15.1 µM (inactive) | > 100 µM (inactive) | 17.3 µM (inactive) | 18.5 µM (inactive) | 4.57 µM (inactive) | 17.3 µM (inactive) | 18.4 µM (inactive) | 15.1 µM (inactive) | – | 17.2 µM (inactive) | 17.4 µM (inactive) | > 10 µM (inactive) | 19.8 µM (inactive) | 16.7 µM (inactive) | 13.9 µM (inactive) | 4.09 µM (inactive) | 13.8 µM (inactive)
Cn1c(=O)[nH]c2c(c1=O)C(=O)CN2 | > 100 µM (inactive) | > 100 µM (inactive) | > 100 µM (inactive) | > 100 µM (inactive) | > 100 µM (inactive) | – | < 0.01 µM (active) | > 100 µM (inactive) | 36.2 µM (inactive) | > 100 µM (inactive) | > 100 µM (inactive) | > 100 µM (inactive) | > 100 µM (inactive) | > 100 µM (inactive) | > 100 µM (inactive) | > 100 µM (inactive) | > 100 µM (inactive) | > 100 µM (inactive) | – | > 100 µM (inactive)
N=C(N)NS(=O)(=O)c1ccc(Nc2c3ccccc3nc3c(C(=O)N4CCN(CCO)CC4)ccc(Cl)c23)cc1 | > 100 µM (inactive) | > 100 µM (inactive) | > 100 µM (inactive) | > 100 µM (inactive) | > 100 µM (inactive) | > 100 µM (inactive) | > 100 µM (inactive) | > 100 µM (inactive) | > 100 µM (inactive) | > 100 µM (inactive) | > 100 µM (inactive) | > 100 µM (inactive) | > 100 µM (inactive) | > 100 µM (inactive) | > 100 µM (inactive) | > 100 µM (inactive) | > 100 µM (inactive) | > 100 µM (inactive) | > 100 µM (inactive) | > 100 µM (inactive)
CC(=O)NC(Cc1ccsc1)C(=O)O (stereo not drawn) | > 100 µM (inactive) | > 100 µM (inactive) | > 100 µM (inactive) | > 100 µM (inactive) | > 100 µM (inactive) | > 100 µM (inactive) | > 100 µM (inactive) | > 100 µM (inactive) | > 100 µM (inactive) | > 100 µM (inactive) | > 100 µM (inactive) | > 100 µM (inactive) | > 62.2 µM (inactive) | > 100 µM (inactive) | > 100 µM (inactive) | > 100 µM (inactive) | > 100 µM (inactive) | > 100 µM (inactive) | > 100 µM (inactive) | > 100 µM (inactive)
COc1ccc(-c2c(C#N)c(N)nc3c2CCS(=O)(=O)c2ccccc2-3)cc1 | > 100 µM (inactive) | > 100 µM (inactive) | > 100 µM (inactive) | > 100 µM (inactive) | > 100 µM (inactive) | – | > 100 µM (inactive) | > 100 µM (inactive) | > 100 µM (inactive) | – | > 100 µM (inactive) | > 100 µM (inactive) | – | > 100 µM (inactive) | – | > 100 µM (inactive) | 38.5 µM (inactive) | > 100 µM (inactive) | > 100 µM (inactive) | > 100 µM (inactive)
COc1ccccc1NC(=O)/C(Cc1nc2ccc([N+](=O)[O-])cc2nc1O)=N\NC(=O)C[N+](C)(C)C | > 100 µM (inactive) | 70.3 µM (inactive) | 13.3 µM (inactive) | 46.8 µM (inactive) | 12.3 µM (inactive) | > 100 µM (inactive) | > 100 µM (inactive) | – | > 100 µM (inactive) | > 100 µM (inactive) | > 100 µM (inactive) | > 100 µM (inactive) | 55.7 µM (inactive) | > 100 µM (inactive) | > 100 µM (inactive) | > 100 µM (inactive) | > 100 µM (inactive) | > 100 µM (inactive) | 62.5 µM (inactive) | 25.7 µM (inactive)
